From ChEMBL document CHEMBL1125092, “Nonneurotoxic tetralin and indan analogues of 3,4-(methylenedioxy)amphetamine (MDA)” (J Med Chem, 1990)

Columns and labels:
Rattus norvegicus [1] = experiment: Monoamine levels in rat brain were evaluated after subcutaneous administration of 40 mg/kg for DOPAC; assay type: functional
Rattus norvegicus [2] = experiment: Hallucinogenic property was determined in groups of MDMA trained rats and percentage of animals disrupted was reported at a dose 1.17 (umol/kg), (number of animals = 8); assay type: functional
Rattus norvegicus [3] = experiment: Tested for stimulus generation in rats trained to discriminate +/-MDMA from saline at 1.17 (umol/kg), (number of animals = 8); assay type: functional
Rattus norvegicus [4] = experiment: Tested for stimulus generation in rats trained to discriminate LSD from saline at a dose 1.17 (umol/kg) (number of animals =16); assay type: functional
Rattus norvegicus [5] = experiment: Hallucinogenic property was determined in groups of LSD trained rats and percentage of animals disrupted was reported at a dose 0.59(uM/kg), (number of animals = 11); assay type: functional
Rattus norvegicus [6] = organism: Rattus norvegicus; experiment: Bmax for compound was evaluated in rat hippocampal homogenate; assay type: tissue-based; conditions: Hippocampus
Rattus norvegicus [7] = experiment: Monoamine levels in rat brain were evaluated after subcutaneous administration of 40 mg/kg for DA; assay type: functional
Rattus norvegicus [8] = experiment: Percentage of animals disrupted was determined in groups of LSD trained rats at a dose of 4.68(uM/kg) (no. of animals = 15); assay type: functional
Rattus norvegicus [9] = experiment: Percentage of animals disrupted was determined in groups of MDMA trained rats at a dose 2.34 (uM/kg), (no.of animals=10); assay type: functional
Rattus norvegicus [10] = experiment: Percentage of animals disrupted was determined in groups of LSD trained rats at a dose of 2.34(uM/kg) (no. of animals = 10); assay type: functional
Rattus norvegicus [11] = experiment: Percentage of animals disrupted was determined in groups of LSD trained rats at a dose of 1.17(uM/kg)(no. of animals =16); assay type: functional
Rattus norvegicus [12] = experiment: Monoamine levels in at hippocampus were evaluated after subcutaneous administration of 40 mg/kg for NE; assay type: functional
[13] = target: T1, Sodium-dependent serotonin transporter (Rattus norvegicus, UniProt P31652); experiment: Binding affinity was determined towards serotonin uptake site in presence of [3H]paroxetine radioligand in rat hippocampal homogenate; assay type: tissue-based, Hippocampus
T1 sequence (P31652 whole entry): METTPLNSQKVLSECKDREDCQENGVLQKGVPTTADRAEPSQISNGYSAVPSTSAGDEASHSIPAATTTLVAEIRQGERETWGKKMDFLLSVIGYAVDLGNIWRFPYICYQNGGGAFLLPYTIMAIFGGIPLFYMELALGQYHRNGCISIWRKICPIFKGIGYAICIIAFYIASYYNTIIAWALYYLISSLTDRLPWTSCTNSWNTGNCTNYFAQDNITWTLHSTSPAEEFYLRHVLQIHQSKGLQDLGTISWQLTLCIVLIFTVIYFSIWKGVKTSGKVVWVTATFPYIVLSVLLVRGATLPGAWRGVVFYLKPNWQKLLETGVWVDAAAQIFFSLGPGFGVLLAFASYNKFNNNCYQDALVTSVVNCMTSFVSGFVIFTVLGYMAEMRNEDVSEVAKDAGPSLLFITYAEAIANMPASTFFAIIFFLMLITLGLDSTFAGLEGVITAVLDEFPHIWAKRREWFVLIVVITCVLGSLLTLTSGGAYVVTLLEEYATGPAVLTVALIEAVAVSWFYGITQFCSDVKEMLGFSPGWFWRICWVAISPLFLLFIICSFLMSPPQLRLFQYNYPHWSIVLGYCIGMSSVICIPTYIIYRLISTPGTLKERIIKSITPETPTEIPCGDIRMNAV

Rattus norvegicus [14] = experiment: Tested for stimulus generation in rats trained to discriminate +/-MDMA from saline at 4.68 (umol/kg), (number of animals = 8); assay type: functional
Rattus norvegicus [15] = experiment: Monoamine levels in rat brain were evaluated after subcutaneous administration of 40 mg/kg for 5-HT; assay type: functional
Rattus norvegicus [16] = experiment: Tested for stimulus generation in rats trained to discriminate LSD from saline at a dose 0.59(uM/kg), (number of animals = 11); assay type: functional
Rattus norvegicus [17] = experiment: Monoamine levels in rat brain were evaluated after subcutaneous administration of 40 mg/kg for HVA; assay type: functional
Rattus norvegicus [18] = experiment: Monoamine levels in rat brain were evaluated after subcutaneous administration of 40 mg/kg for NE; assay type: functional
Rattus norvegicus [19] = experiment: Percentage of animals disrupted was determined in groups of LSD trained rats at a dose of 9.36(uM/kg) (no. of animals =6); assay type: functional
Rattus norvegicus [20] = experiment: Tested for stimulus generation in rats trained to discriminate LSD from saline at a dose 4.68 (umol/kg),(number of animals = 15); assay type: functional
Rattus norvegicus [21] = experiment: Monoamine levels in rat hippocampus were evaluated after subcutaneous administration of 40 mg/kg for 5-HT; assay type: functional
Rattus norvegicus [22] = experiment: Tested for stimulus generation in rats trained to discriminate LSD from saline at a dose 2.34 (umol/kg) (number of animals = 10); assay type: functional
Rattus norvegicus [23] = experiment: Tested for stimulus generation in rats trained to discriminate +/-MDMA from saline at 2.34 (umol/kg), (number of animals = 10); assay type: functional
Rattus norvegicus [24] = experiment: Percentage of animals disrupted was determined in groups of MDMA trained rats at a dose 4.68 (uM/kg), (no.of animals=8); assay type: functional
Rattus norvegicus [25] = experiment: Monoamine levels in rat brain were evaluated after subcutaneous administration of 40 mg/kg for 5-HIAA; assay type: functional
Rattus norvegicus [26] = experiment: Monoamine levels in rat hippocampus were evaluated after subcutaneous administration of 40 mg/kg for 5-HIAA; assay type: functional
Rattus norvegicus [27] = experiment: Percentage of animals disrupted was determined in groups of MDMA trained rats at a dose 9.36 (uM/kg), (no.of animals=10); assay type: functional
Rattus norvegicus [28] = organism: Rattus norvegicus; experiment: Bmax for compound was evaluated in rat cortical homogenate; assay type: tissue-based
[29] = target: T1, Sodium-dependent serotonin transporter; experiment: Binding affinity was determined towards serotonin uptake site in presence of [3H]paroxetine radioligand in rat brain cortical homogenate; assay type: tissue-based
Rattus norvegicus [30] = experiment: Tested for stimulus generation in rats trained to discriminate +/-MDMA from saline at 9.36 (umol/kg), (number of animals = 10); assay type: functional

Compound `NC1Cc2cc3c(cc2C1)OCO3` has a Monoamine level (Rattus norvegicus [1]) of 187 pg/mg, a D (Rattus norvegicus [2]) of 0% and an SDL (Rattus norvegicus [3]) of 13%. It also gave an SDL (Rattus norvegicus [4]) of 50%, a D (Rattus norvegicus [5]) of 27% and a Bmax (Rattus norvegicus [6]) of 675 fM/g. The Monoamine level (Rattus norvegicus [7]) was 130 pg/mg, the D (Rattus norvegicus [8]) was 47% and the D (Rattus norvegicus [9]) was 20%. For the same compound, the D (Rattus norvegicus [10]) was 20%, the D (Rattus norvegicus [11]) was 50% and the Monoamine level (Rattus norvegicus [12]) was 459 pg/mg. It also gave a Kd [13] of 0.127 nM, an SDL (Rattus norvegicus [14]) of 63% and a Monoamine level (Rattus norvegicus [15]) of 330 pg/mg. The SDL (Rattus norvegicus [16]) was 13%, the Monoamine level (Rattus norvegicus [17]) was 193 pg/mg and the Monoamine level (Rattus norvegicus [18]) was 395 pg/mg. It also gave a D (Rattus norvegicus [19]) of 91%, an SDL (Rattus norvegicus [20]) of 25% and a Monoamine level (Rattus norvegicus [21]) of 273 pg/mg. The SDL (Rattus norvegicus [22]) was 38%, the SDL (Rattus norvegicus [23]) was 50% and the D (Rattus norvegicus [24]) was 0%. For the same compound, the Monoamine level (Rattus norvegicus [25]) was 329 pg/mg, the Monoamine level (Rattus norvegicus [26]) was 473 pg/mg and the D (Rattus norvegicus [27]) was 10%. The Bmax (Rattus norvegicus [28]) was 918 fM/g, the Kd [29] was 0.104 nM and the SDL (Rattus norvegicus [30]) was 100%.
